Measured values: patent publication US20160039917A1, “Method for Treating Eclampsia and Preeclampsia” (VELO BIO, LLC, priority 2013, published 2016)
Where two headings read alike, the source gives them in different places.

Tests used:
[1] = test system: human placental EDLF production (fetal tissues); test: Placental explant culture (fetal side), EDLF released into media measured by Digibind RIA; type: cell-based; conditions: for EDLF accumulation in culture: time course; for EDLF production: fetal tissues; for EDLF in the conditioned media, earlier time points / EDLF concentration in the conditioned media: 2 μM; for EDLF in the conditioned media, earlier time points: early time point experiment
[2] = test system: human placental EDLF production (maternal tissues); conditions: 48 hours
Method: Human placenta was dissected into fetal and maternal tissues. These were incubated in buffered culture media for 48 hours in the absence or presence of graded concentrations of ketoconazole. The culture media was collected and the amount of EDLF released from the tissue was measured using an RIA.
At the end of incubation, samples of the culture medium were collected in 15 mL conical tubes and any residual villi were removed by centrifuging at 4000 RPM for 2 min. The supernatant was stored at −80° C. as conditioned medium until later processing and assay.
After the homogenization and tissue culture processes, homogenate and conditioned media samples were collected and assayed by radioimmunoassay. Digibind (GlaxoSmithKline, Research Triangle Park, N.C., USA) was used as the primary antibody anti-EDLF/ouabain and a rabbit anti-sheep immunoglobulin (IgG) Fab fragment antibody (Jackson ImmunoResearch Laboratories, Inc., West Grove, Pa., USA) was used as the secondary antibody. […] Tritiated ouabain (30.0 Ci/mmol, Perkin Elmer, Boston, Mass., USA) was used as a tracer. Cold ouabain solutions at graded concentrations were used as standards. A 100 μL aliquot of specimen or standard ouabain solution (50 nM, 0.1 μM, 0.2 μM, 0.5 μM, 1 μM, 3 μM), plus 50 μL of a 2.22×10^-8 M tritiated ouabain solution, 300 μL of 1.8 μg/mL Digibind solution, 60 μL of 2.12×10^-7 M 2° Ab solution and 10 μL of 10 mM pH 7.4 Tris buffer were combined and mixed well, then allowed to incubate at room temperature overnight to allow antigen-antibody binding. For the assay of conditioned media, because samples contained DMEM medium, 100 μL of DMEM were added to the reaction solutions for each standard and 100 μL of deionized H2O were added to reaction solutions for specimens to bring them to the same volume. EDLF in the several conditioned media/homogenate specimens or standard cold ouabain in the calibrating solutions competed with the labeled ouabain for Digibind and then the secondary (2°) antibody was added to bind to the primary (1°) antibody-antigen complex to decrease its solubility. After the overnight incubation, 563 μL of 16% polyethylene glycol (PEG)-6000 (Calbiochem, La Jolla, Calif., USA) was added to each reaction solution to precipitate the antibody-antigen complex. After centrifugation at 13,200 rpm for 30 min, the supernatant was discarded and the pellet was resuspended in 500 μL of 0.05 M phosphate buffer (pH 7.0).

[3] = test system: placental ROS release (lipid peroxides); conditions: 48 hours
Method: (§1) For these studies placentas from uncomplicated pregnancies were obtained immediately after delivery and 4-5 small tissue pieces (˜5 mm×5 mm×5 mm) were cut off from the inner fetal side. The tissue pieces were dissected into tiny pieces with sterilized scissors. Any visible clots and blood vessels were removed with sterilized tweezers. The remaining villi were washed repeatedly with PBS to remove blood from the intervillous space. Villous tissue of ˜5 mg/well was then patted dry by sterilized paper tower and incubated in a 6-well cell culture plate with 5 mL of serum-free DMEM (Gibson, Grand Island, N.Y., USA) containing 100 U/mL penicillin, 100 μg/mL streptomycin and 0.25 μg/mL amphotericin B (Sigma, St. Louis, Mo., USA) per well for 48 hours at 37° C. in an incubator gassed with 95% air and 5% CO2.
(§2) Conditioned media from placental explants cultured with hydrogen peroxide or under low O2 conditions were collected and assayed by a Lipid Hydroperoxide (LPO) Assay Kit (Cayman Chemical, Ann Arbor, Mich., USA) and a human TNF-alpha Quantikine ELISA Kit (R&D Systems, Minneapolis, Minn., USA) following the manufacturers' methods to determine levels of lipid oxidation.

placental TNFα release = conditions: 48 hours
Method: as §1, §2

With CC(=O)[C@@]1(O)CC[C@H]2[C@@H]3CCC4=CC(=O)CC[C@]4(C)[C@H]3CC[C@@]21C [17P, 17α-hydroxyprogesterone] the “EDLF released into the culture media” value ([1]; 48 hours, 0.20 μM) was 3.60±1.06 ×10^−8 M ouabain equivalents, the “EDLF released into the culture media” value ([1]; 48 hours, 0.50 μM) was 3.76±0.84 ×10^−8 M ouabain equivalents and the “EDLF released into the culture media” value ([1]; 48 hours, 1.0 μM) was 4.40±1.12 ×10^−8 M ouabain equivalents. For the same compound, the “EDLF released into the culture media” value ([1]; 48 hours, 2.0 μM) was 4.91±1.52 ×10^−8 M ouabain equivalents, the “EDLF accumulation in culture” value ([1]; 2.0 μM, 6 hours) was 12.60±3.81 ×10^−8 M ouabain equivalents and the “EDLF accumulation in culture” value ([1]; 2.0 μM, 12 hours) was 28.30±6.30 ×10^−8 M ouabain equivalents. For the same compound, the “EDLF accumulation in culture” value ([1]; 2.0 μM, 24 hours) was 55.39±33.62 ×10^−8 M ouabain equivalents, the “EDLF accumulation in culture” value ([1]; 2.0 μM, 36 hours) was 95.00±40.44 ×10^−8 M ouabain equivalents and the “EDLF accumulation in culture” value ([1]; 2.0 μM, 48 hours) was 132.43±74.37 ×10^−8 M ouabain equivalents.

CC(=O)[C@H]1CC[C@H]2[C@@H]3CCC4=CC(=O)CC[C@]4(C)[C@H]3CC[C@]12C [Progesterone, progesterone] was tested, and the “effect on EDLF production” value ([1]; placenta) was “little or no effect”.

For TNFα, the “EDLF released into the culture media” value ([1]; 48 hours, 1.0 nM) was 2.41±0.80 ×10^−8M ouabain equivalents, the “EDLF released into the culture media” value ([1]; 48 hours, 2.0 nM) was 2.75±0.98 ×10^−8M ouabain equivalents and the “EDLF released into the culture media” value ([1]; 48 hours, 5.0 nM) was 2.76±0.80 ×10^−8M ouabain equivalents. The “EDLF released into the culture media” value ([1]; 48 hours, 10.0 nM) was 3.51±0.69 ×10^−8M ouabain equivalents and the “EDLF released into the culture media” value ([1]; 48 hours, 20.0 nM) was 4.47±0.99 ×10^−8M ouabain equivalents.

With CC(=O)N1CCN(c2ccc(OCC3COC(Cn4ccnc4)(c4ccc(Cl)cc4Cl)O3)cc2)CC1 (stereo not drawn) [ketoconazole] the EDLF production ([2]; 1.0 μM) was 1.90±2.05 ×10^−8 M RIA ouabain equivalents, the EDLF production ([2]; 2.0 μM) was 1.79±1.96 ×10^−8 M RIA ouabain equivalents and the EDLF production ([2]; 5.0 μM) was 1.83±2.03 ×10^−8 M RIA ouabain equivalents. The EDLF production ([2]; 10.0 μM) was 1.73±1.82 ×10^−8 M RIA ouabain equivalents, the EDLF production ([2]; 20.0 μM) was 2.46±2.60 ×10^−8 M RIA ouabain equivalents and the EDLF production ([1]; 48 hours, 1.0 μM) was 7.99±13.21 ×10^−8 M RIA ouabain equivalents. The EDLF production ([1]; 48 hours, 2.0 μM) was 5.58±8.91 ×10^−8 M RIA ouabain equivalents, the EDLF production ([1]; 48 hours, 5.0 μM) was 1.60±1.62 ×10^−8 M RIA ouabain equivalents and the EDLF production ([1]; 48 hours, 10.0 μM) was 1.47±1.64 ×10^−8 M RIA ouabain equivalents. For the same compound, the EDLF production ([1]; 48 hours, 20.0 μM) was 1.25±1.43 ×10^−8 M RIA ouabain equivalents.

CC(=O)[C@H]1CC[C@H]2[C@@H]3CC=C4C[C@@H](O)CC[C@]4(C)[C@H]3CC[C@]12C [pregnenolone] was tested, and the “EDLF in the conditioned media, earlier time points” value ([1]; 3 hours) was 77.4+25.0 ×10^−8 M, the “EDLF concentration in the conditioned media” value (from here on “EDLF concentration”) ([1]; 6 hours) was 325.6±61.0 ×10^−8 M and the “EDLF in the conditioned media, earlier time points” value ([1]; 6 hours) was 76.8+35.0 ×10^−8 M ouabain equivalents. For the same compound, the “EDLF concentration” value ([1]; 12 hours) was 136.1±27.7 ×10^−8 M, the “EDLF concentration” value ([1]; 24 hours) was 148.4±15.1 ×10^−8 M and the “EDLF concentration” value ([1]; 36 hours) was 113.6±14.4 ×10^−8 M. For the same compound, the “EDLF concentration” value ([1]; 48 hours) was 48.5±7.4 ×10^−8 M.

OO [H2O2, hydrogen peroxide] was tested, and the “released EDLF” value ([1]; 48 hours, 5 nM) was 4.87±1.57 ×10^−8 M ouabain equivalents, the “EDLF levels in the media” value ([1]; higher concentrations (10 nM, 20 nM)) was “equal or slightly lower than those treated with 5 nM H2O2” and the lipid peroxides ([3]; 1.0 nM) was 6.62 ± 3.31 µM. The lipid peroxides ([3]; 5.0 nM) was 9.17 ± 3.18 µM, the lipid peroxides ([3]; 10.0 nM) was 11.43 ± 3.67 µM and the lipid peroxides ([3]; 20.0 nM) was 13.13 ± 5.04 µM. It also gave a TNFα release (placental TNFα release; 1.0 nM) of 18.61 ± 13.60 pg/mL, a TNFα release (placental TNFα release; 5.0 nM) of 14.95 ± 6.39 pg/mL and a TNFα release (placental TNFα release; 10.0 nM) of 15.83 ± 6.63 pg/mL. For the same compound, the TNFα release (placental TNFα release; 20.0 nM) was 13.50 ± 3.43 pg/mL.
